Assay results from the NIST ThermoML archive (doi:10.1021/je0342163).

Assay: wn = mass fraction of the nth substance listed

CC(F)(F)F [1,1,1-trifluoroethane] + FCC(F)(F)F
Details	surface tension liquid-gas [mN/m]
256.91 K, w1 = 0.7511	10.69
257.03 K, w1 = 0.263	12.6
257.14 K, w1 = 0.5656	11.49
258.79 K, w1 = 0.7508	10.37
258.87 K, w1 = 0.2627	12.39
260.95 K, w1 = 0.565	10.86
261 K, w1 = 0.7503	10.13
262.96 K, w1 = 0.75	9.8
263.05 K, w1 = 0.5646	10.49
264.97 K, w1 = 0.2618	11.46
264.97 K, w1 = 0.7496	9.615
265.07 K, w1 = 0.5643	10.39
266.84 K, w1 = 0.564	10.02
267.09 K, w1 = 0.7491	9.245
268.62 K, w1 = 0.7488	9.17
268.83 K, w1 = 0.2611	10.94
268.92 K, w1 = 0.5636	9.81
270.52 K, w1 = 0.5633	9.46
270.6 K, w1 = 0.7484	8.84
271.15 K, w1 = 0.2607	10.62
273.07 K, w1 = 0.5628	9.14
273.2 K, w1 = 0.2604	10.39
273.23 K, w1 = 0.7478	8.49
274.99 K, w1 = 0.5625	8.825
275.4 K, w1 = 0.7473	8.26
275.43 K, w1 = 0.26	10.06
277.04 K, w1 = 0.2597	9.845
277.27 K, w1 = 0.562	8.575
278.99 K, w1 = 0.5617	8.35
279.15 K, w1 = 0.2593	9.5
279.35 K, w1 = 0.7463	7.755
281.43 K, w1 = 0.2589	9.23
281.48 K, w1 = 0.5612	8
281.54 K, w1 = 0.7458	7.46
282.89 K, w1 = 0.2586	9.01
283.35 K, w1 = 0.5608	7.755
283.39 K, w1 = 0.7453	7.25
285.2 K, w1 = 0.5604	7.465
285.24 K, w1 = 0.2581	8.695
285.45 K, w1 = 0.7448	6.985
287.35 K, w1 = 0.5599	7.295
287.39 K, w1 = 0.7443	6.725
287.4 K, w1 = 0.2577	8.415
289.05 K, w1 = 0.7438	6.5
289.29 K, w1 = 0.5595	7.115
289.31 K, w1 = 0.2573	8.23
291.17 K, w1 = 0.7432	6.23
291.2 K, w1 = 0.5591	6.82
291.37 K, w1 = 0.2569	8.03
293.21 K, w1 = 0.2565	7.725
293.45 K, w1 = 0.2564	7.57
293.49 K, w1 = 0.5585	6.47
293.71 K, w1 = 0.7425	5.82
295.16 K, w1 = 0.5582	6.13
295.56 K, w1 = 0.7419	5.58
295.58 K, w1 = 0.256	7.285
297.38 K, w1 = 0.2556	7.06
297.49 K, w1 = 0.7413	5.375
297.52 K, w1 = 0.5576	5.875
299.41 K, w1 = 0.7407	5.14
299.51 K, w1 = 0.5571	5.72
299.53 K, w1 = 0.2552	6.855
301.41 K, w1 = 0.7401	4.89
301.53 K, w1 = 0.2547	6.585
302.95 K, w1 = 0.5563	5.335
303.65 K, w1 = 0.7394	4.63
303.66 K, w1 = 0.2542	6.325
305.21 K, w1 = 0.5557	5.055
305.38 K, w1 = 0.7388	4.425
305.56 K, w1 = 0.2538	6.13
307.4 K, w1 = 0.5552	4.755
307.46 K, w1 = 0.2534	5.835
307.74 K, w1 = 0.738	4.17
309.3 K, w1 = 0.5547	4.56
309.6 K, w1 = 0.2529	5.585
309.65 K, w1 = 0.7373	3.97
311.25 K, w1 = 0.2525	5.385
311.41 K, w1 = 0.5541	4.29
311.44 K, w1 = 0.7367	3.755
313.47 K, w1 = 0.736	3.5
313.55 K, w1 = 0.252	5.095
313.61 K, w1 = 0.5536	4.03
315.3 K, w1 = 0.5531	3.825
315.54 K, w1 = 0.7352	3.3
315.59 K, w1 = 0.2515	4.85
317.36 K, w1 = 0.2511	4.66
317.41 K, w1 = 0.5525	3.605
317.57 K, w1 = 0.7345	3.11
319.33 K, w1 = 0.552	3.415
319.39 K, w1 = 0.7338	2.875
319.66 K, w1 = 0.2506	4.41
321.23 K, w1 = 0.7331	2.685
321.33 K, w1 = 0.5515	3.18
322.01 K, w1 = 0.25	4.12
323.26 K, w1 = 0.2497	4
323.33 K, w1 = 0.7323	2.44
323.42 K, w1 = 0.5509	2.925
325.17 K, w1 = 0.5505	2.75
325.28 K, w1 = 0.7315	2.25
325.69 K, w1 = 0.2492	3.67
327.33 K, w1 = 0.2488	3.545
327.36 K, w1 = 0.7306	2.065
327.38 K, w1 = 0.5498	2.53
329.42 K, w1 = 0.7298	1.81
329.44 K, w1 = 0.5493	2.32
